# Measurements taken from US6759403B2, “Metalloporphyrins and their uses as radiosensitizers for radiation therapy” (Brookhaven Science Associates, LLC, priority 2001, dated 2004).
# Legend:
# [1] = test system: EMT-6 leg tumors; experiment: Boron biodistribution in mice with subcutaneous EMT-6 leg tumors (Example 3); format: in vivo, BALB/c mice; conditions: for Boron Concentration, Blood / Boron Concentration, Liver / Boron concentration, Cerebrum / Boron concentration, Ears / Boron Concentration, Tumor: 156 μg CuTCPBr/gbw over 2 days; for Boron Concentration, Tumor / Tumor boron concentration normalized to the dose of the first study: leg tumor; for Tumor boron concentration normalized to the dose of the first study: normalized from 156 to 186 μg/g dose
# Procedure: In this example, BALB/c mice bearing subcutaneous EMT-6 leg tumors were given 156 μg CuTCPBr/gbw in a volume of 0.01 mL/gbw/injection over a period of 2 days.
# There is a larger vascular system surrounding the dorsal thorax compared with the leg, which may be a factor. However, in the case of CuTCPH, the boron concentration was 30% higher in leg tumors compared to back tumors. Normalizing to the slightly higher dose of the first study, the tumor boron concentration should be about 29 and 15 μg/g at 2d and 5d, respectively, which are still low. Studies are underway to repeat these experiments.
# [2] = test system: EMT-6 mammary carcinomas; experiment: Boron biodistribution in mice with EMT-6 tumors of the dorsal thorax (Example 2); format: in vivo, BALB/c mice; conditions: 186 μg CuTCPBr/g body weight total, 6 ip injections over 2 days; 4 days after last injection
# Procedure: Five BALB/c mice bearing subcutaneously implanted EMT-6 mammary carcinomas on the dorsal thorax were given a total dose of 186 μg CuTCPBr/g body weight in 6 intraperitoneal (ip) injections over a period of 2 days. Four days after the last injection mice were euthanized and the average boron concentrations (μg/g wet tissue) were measured for different types of tissue.
# [3] = test system: EMT-6 mammary tumors; experiment: Boron concentrations in tissues at the time of irradiation (Example 8); format: in vivo, BALB/c mice; conditions: ≈400 μg/g body weight CuTCPBr, euthanized the day of irradiation
# Description: In this example, female BALB/c mice (Taconic Farms, Germantown, N.Y.) (20-25 g) were used in radiotherapy studies to compare tumor control effects in mice bearing EMT-6 mammary tumors. The EMT-6 leg tumors were formed by mincing freshly removed tumor tissue from mice into fragments no larger than 0.5 mm. The fragments were mixed in a saline solution and implanted subcutaneously (sc) in the legs of mice using an 18-gauge trocar. Tumor fragments were used because in this particular location tumors initiated by cell suspensions tend to spread in a thin subcutaneous layer and invade the subjacent muscle. Using tumor fragments, the tumors are palpable, but thinner on the leg than on the dorsal thorax. In late stage, fragment-initiated tumors can invade muscle tissue but not as frequently as do suspension-initiated tumors.
# At approximately seven days after tumor implantation, the mice were stratified by tumor volume into six (6) matched experimental groups, which included five groups of twelve (12) mice each and a control group of thirty-three (33). Two groups were treated with ≈400 μg/g body weight CuTCPBr and given two doses of 100 kVp x-irradiation x-rays, two groups were treated with only two doses of 100 kVp x-irradiation, one group received CuTCPBr and were euthanized the day of irradiation. The function of the group which was immediately euthanized was to determine the boron concentration in tissues at the time of irradiation. It was not a control group upon which the effectiveness of treatment was compared. The control group of thirty-three mice was not treated at all.
# Tumor to blood boron concentration ratios were about 4:1, which is low due to the high blood values. Such a trend was also observed with CuTCPH at high doses of 400 mg/kg.
# [4] = test system: subcutaneous 9L gliosarcomas; experiment: Boron biodistribution after intravenous infusion in rat 9L gliosarcoma model (Examples 6 and 7); format: in vivo, Fischer 344 rats
# Procedure: This example used the experimental rat 9L gliosarcoma model and the protocol used to administer porphyrins by intravenous infusion that were reported in J. NeuroOncol, 52, 111-117, 2001. Six (6) male Fischer 344 rats bearing subcutaneous 9L gliosarcomas were infused intravenously with CuTCPBr at a total dose of 220 μg/gbw over 48 hours. Tumor and blood were sampled from each at zero, one, two and three days after the end of infusion and the boron concentrations measured. In this example, the biodistribution of CuTCPBr was compared to CuTCPH. A group of six (6) male Fischer 344 rats bearing subcutaneous 9L gliosarcomas were infused intravenously with CuTCPBr at a total dose of 220 μg/gbw over 48 hours. A second group of four (4) male Fischer 344 rats bearing subcutaneous 9L gliosarcomas were infused intravenously with CuTCPH at a total dose of 195 μg/gbw. over 48 hours. Boron concentrations in tissues from both groups of rats were taken three days after the end of infusion. The results for the CuTCPBr group of rats are listed in column 2 of Table 6 and the results for the CuTCPH group of rats are listed in column 4 of Table 6. To account for the difference in porphyrin dose (195 μg/gbw for CuTCPH versus 220 μg/gbw for CuTCPBr) and the difference in % boron in each porphyrin (31.8% for CuTCPH versus 21.7 for CuTCPBr), the boron concentrations in tissues from rats given CuTCPBr were normalized so that they would be equivalent to the boron concentrations of rats given CuTCPH. This was done by multiplying the boron concentrations in the CuTCPBr group of rats by the CuTCPBr to CuTCPH boron dose ratio of 1.3. The normalized boron concentrations for the CuTCPBr group of rats are listed in column 3 of Table 6.
# [5] = 220 μg/gbw CuTCPBr (47.7 μg B/gbw) iv over 48 hours, 3 days after end of infusion
# [6] = CuTCPBr 220 μg/gbw iv infusion over 48 hours, 0 days after end of infusion
# [7] = CuTCPBr 220 μg/gbw iv infusion over 48 hours, 1 day after end of infusion
# [8] = CuTCPBr 220 μg/gbw iv infusion over 48 hours, 2 days after end of infusion
# [9] = CuTCPBr 220 μg/gbw iv infusion over 48 hours, 3 days after end of infusion
# [10] = normalized to boron dose 61.8 μg B/gbw (x1.3), 3 days after end of infusion
substance,measurement,setting,value
copper octabromotetracarboranylphenylporphyrin [CuTCPBr],"Boron Concentration, Blood",[1]; 2 days after last injection,0.2 ± 0.1 µg/g
same,"Boron Concentration, Liver",[1]; 2 days after last injection,271 ± 40 µg/g
same,"Boron concentration, Cerebrum",[1]; 2 days after last injection,0 ± 0.1 µg/g
same,"Boron concentration, Ears",[1]; 2 days after last injection,1 ± 1 µg/g
same,"Boron Concentration, Tumor",[1]; 2 days after last injection,24 ± 11 µg/g
same,"Boron Concentration, Blood",[1]; 5 days after last injection,0.1 ± 0.1 µg/g
same,"Boron Concentration, Liver",[1]; 5 days after last injection,308 ± 40 µg/g
same,"Boron concentration, Cerebrum",[1]; 5 days after last injection,0.6 ± 1 µg/g
same,"Boron concentration, Ears",[1]; 5 days after last injection,0.6 ± 0.7 µg/g
same,"Boron Concentration, Tumor",[1]; 5 days after last injection,13 ± 6 µg/g
same,Tumor boron concentration normalized to the dose of the first study,[1]; 2d,about 29 μg/g
same,Tumor boron concentration normalized to the dose of the first study,[1]; 5d,~15 µg/g
same,"Boron Concentration, Blood",[2],0.6 ± 0.2 μg B/g wet tissue
same,"Boron Concentration, Brain",[2],0.5 ± 0.1 μg B/g wet tissue
same,"Boron Concentration, Liver",[2],272 ± 93 μg B/g wet tissue
same,"Boron Concentration, Tumor",[2],84 ± 15 μg B/g wet tissue
same,"Boron Concentration, Blood",[3],68 (19) μg/g
same,"Boron Concentration, Liver",[3],725 (72) μg/g
same,"Boron Concentration, Muscle",[3],12 (3) μg/g
same,"Boron Concentration, Skin",[3],20 (4.3) μg/g
same,"Boron Concentration, Tumor",[3]; leg tumor,277 (45) μg/g
same,"Boron Concentration, Brain",[4]; [5],0.4 (0) μg/g
same,"Boron Concentration, Kidney",[4]; [5],11 (1) μg/g
same,"Boron Concentration, Lacrimal Gland",[4]; [5],28 (13) μg/g
same,"Boron Concentration, Liver",[4]; [5],477 (25) μg/g
same,"Boron Concentration, Lung",[4]; [5],123 (42) μg/g
same,"Boron Concentration, Lymph Nodes",[4]; [5],202 (32) μg/g
same,"Boron Concentration, Parotid Gland",[4]; [5],85 (36) μg/g
same,"Boron Concentration, Spinal Cord",[4]; [5],0.9 (0.4) μg/g
same,"Boron Concentration, Spleen",[4]; [5],632 (41) μg/g
same,"Boron Concentration, Submaxillary Gland",[4]; [5],68 (8) μg/g
same,"Boron Concentration, Tongue",[4]; [5],30 (3) μg/g
same,"Boron concentration, Ears",[4]; [5],8.4 (1.2) μg/g
same,"Boron Concentration, Tumor","[4]; CuTCPBr 220 μg/gbw (47.7 μg B/gbw) iv infusion over 48 hours, 3 days after end of infusion",52 (19) μg/g
same,"Boron Concentration, Blood",[4]; [6],360 (30) μg/g
same,"Boron Concentration, Tumor",[4]; [6],67 (26) μg/g
same,Tumor to Blood Ratio (boron),[4]; [6],0.19
same,"Boron Concentration, Blood",[4]; [7],150 (20) μg/g
same,"Boron Concentration, Tumor",[4]; [7],64 (17) μg/g
same,Tumor to Blood Ratio (boron),[4]; [7],0.43
same,"Boron Concentration, Blood",[4]; [8],23 (7) μg/g
same,"Boron Concentration, Tumor",[4]; [8],75 (34) μg/g
same,Tumor to Blood Ratio (boron),[4]; [8],3.3
same,"Boron Concentration, Blood",[4]; [9],1.4 (0.1) μg/g
same,Tumor to Blood Ratio (boron),[4]; [9],38
same,"Boron Concentration, Brain, CuTCPBr Normalized",[4]; [10],0.5 µg/g
same,"Boron Concentration, Ears, CuTCPBr Normalized",[4]; [10],11 µg/g
same,"Boron Concentration, Kidney, CuTCPBr Normalized",[4]; [10],14 µg/g
same,"Boron Concentration, Lacrimal Gland, CuTCPBr Normalized",[4]; [10],37 µg/g
same,"Boron Concentration, Liver, CuTCPBr Normalized",[4]; [10],623 µg/g
same,"Boron Concentration, Lung, CuTCPBr Normalized",[4]; [10],161 µg/g
same,"Boron Concentration, Lymph Nodes, CuTCPBr Normalized",[4]; [10],264 µg/g
same,"Boron Concentration, Parotid Gland, CuTCPBr Normalized",[4]; [10],111 µg/g
same,"Boron Concentration, Spinal Cord, CuTCPBr Normalized",[4]; [10],1.2 µg/g
same,"Boron Concentration, Spleen, CuTCPBr Normalized",[4]; [10],825 µg/g
same,"Boron Concentration, Submaxillary Gland, CuTCPBr Normalized",[4]; [10],89 µg/g
same,"Boron Concentration, Tongue, CuTCPBr Normalized",[4]; [10],39 µg/g
same,"Boron Concentration, Tumor, CuTCPBr Normalized",[4]; [10],68 µg/g
same,Toxicity,"[4]; rats, 220 μg/gbw CuTCPBr or 195 μg/gbw CuTCPH iv over 48 hours",does not appear to be a major problem
